The test system of one experiment is blueberries. The experiment can be described thus: Weight of dipped blueberries over time (moisture retention and freshness).
In a further experiment the test system is Java plums. The experiment can be described thus: Weight of dipped Java plums over time (moisture retention and freshness). As to the method: Starting with two sets of java plums, each set containing eight plums, a control set is dipped in 95% ethanol and placed at room temperature and 50% Relative humidity. A second set, the treatment set, is dipped in a zein composition consisting of 100 mL 95% Ethanol+6 g zein powder. […] were weighed on days 1, 2, 3, 4, 6, 7. Weights were taken to approximate moisture retention and freshness. After 7 days, average weight loss of control (no zein applied) Java plums was 28.5% compared to 23.6% weight loss for zein treatment. Java plums treated with zein retained 17.2% more moisture compared to untreated plums.

[1] abbreviates: single fruit samples, zein dip (6 g in 100 mL 95% ethanol), 23-25° C., Day 1.

Several values for one entry are separate records, joined by “and”; a condition that tells them apart may be missing. Equal values may be shown once.

For zein, the average weight loss in the experiment on blueberries (blueberries, after nine days, dipped in 100 mL 95% ethanol+6 g zein powder, control 43.1%) is reported as 37.2%; with Java plums (Java plums, after 7 days, dipped in 100 mL 95% ethanol+6 g zein powder, control 28.5%), 23.6%. Further, the “more moisture retained compared to untreated berries” value in the experiment on blueberries (blueberries, after nine days, zein dip) was 13.7%. The “Weight of blueberries, Day 1” value in the experiment on blueberries (setting [1]) was 1.6 grams and 1.79 grams and 1.62 grams and 1.71 grams and 1.7 grams. Also, the “Weight of blueberries, Day 2” value in the experiment on blueberries (zein dip, 23-25° C., Day 2) is 1.52 grams and 1.7 grams and 1.53 grams and 1.63 grams. The “Weight of blueberries, Day 3” value with blueberries (zein dip, 23-25° C., Day 3) was 1.44 grams and 1.6 grams and 1.54 grams and 1.55 grams. The “Weight of blueberries, Day 5” value with blueberries (zein dip, 23-25° C., Day 5) was 1.3 grams and 1.65 grams and 1.99 grams and 1.63 grams. In addition, the “Weight of blueberries, Day 6” value in the experiment with blueberries (zein dip, 23-25° C., Day 6) was 1.23 grams and 1.22 grams and 1.37 grams and 1.32 grams and 1.36 grams. For the same substance, the “Weight of blueberries, Day 7” value in the experiment on blueberries (zein dip, 23-25° C., Day 7) is 1.16 grams and 1.31 grams and 1.26 grams and 1.3 grams. Besides, the “Weight of blueberries, Day 8” value with blueberries (zein dip, 23-25° C., Day 8) is 1.09 grams and 1.1 grams and 1.26 grams and 1.19 grams. Moreover, the “Weight of blueberries, Day 11” value in the experiment on blueberries (zein dip, 23-25° C., Day 11) was 1.06 grams and 1.2 grams and 1.15 grams and 1.19 grams. Also, the “Weight of blueberries, Day 12” value in the experiment on blueberries (zein dip, 23-25° C., Day 12) was 0.97 grams and 0.98 grams and 1.12 grams and 1.08 grams and 1.13 grams. Further, in the experiment on blueberries (zein dip, 23-25° C., Day 13), the “Weight of blueberries, Day 13” value was 0.85 grams and 0.86 grams and 1.01 grams and 0.97 grams. In addition, the “Weight of blueberries, Day 14” value with blueberries (zein dip, 23-25° C., Day 14) was 0.82 grams and 0.832 grams and 0.98 grams and 0.94 grams. The “more moisture retained compared to untreated plums” value in the experiment on Java plums (Java plums, after 7 days, zein dip) worked out at 17.2%. Also, the “Weight of Java plums, Day 1” value in the experiment on Java plums (setting [1]) was 15.82 grams and 15.19 grams and 11.63 grams and 11.83 grams and 16.16 grams and 14.65 grams and 14.35 grams and 12.88 grams. For the same substance, the “Weight of Java plums, Day 2” value in the experiment with Java plums (zein dip, 23-25° C., Day 2) is 15.03 grams and 14.42 grams and 10.79 grams and 11.19 grams and 13.65 grams and 13.13 grams and 13.63 grams and 12.24 grams. Besides, the “Weight of Java plums, Day 3” value with Java plums (zein dip, 23-25° C., Day 3) is 14.46 grams and 13.88 grams and 10.33 grams and 10.72 grams and 12.96 grams and 19.13 grams and 11.78 grams. For the same substance, in the experiment with Java plums (zein dip, 23-25° C., Day 4), the “Weight of Java plums, Day 4” value is 13.72 grams and 13.16 grams and 9.72 grams and 9.12 grams and 12.36 grams and 12.67 grams and 11.18 grams. The “Weight of Java plums, Day 6” value in the experiment with Java plums (zein dip, 23-25° C., Day 6) was 12.53 grams and 12.02 grams and 8.73 grams and 11.33 grams and 11.39 grams and 10.2 grams. The “Weight of Java plums, Day 7” value with Java plums (zein dip, 23-25° C., Day 7) was 12.15 grams and 11.66 grams and 8.4 grams and 11 grams and 11.03 grams and 9.87 grams.

The values are drawn from patent US20260240179A1, “EDIBLE COMPOSITIONS AND METHODS FOR THE PRESERVATION OF FRUITS AND VEGETABLES” (ONYX LOTUS, LLC, priority 2023, published 2026).
